These results are taken from patent publication US11015200B2, “Antisense-induced exon exclusion in myostatin” (Sarepta Therapeutics, Inc., priority 2015, dated 2021).

For data set [1], the system named is exon 2 of the human myostatin gene (huMSTN). The experiment in a line: Exon 2 skipping by RT-PCR in nucleofected human rhabdomyosarcoma (RD) cells. It is filed as cell-based. Conditions: for EC50: RD cells nucleofected with PMO at 10, 3, 1, 0.3 μM, overnight, concentration inducing 50% exon skipping; for exon skipping, in words: third series, FIG. 5, RD cells, based on the calculated EC50 values. As to the method: (§1) In vitro experiments were performed to investigate the ability of antisense oligonucleotides designed and prepared as described above to decrease the expression of exon 2 containing myostatin pre-mRNA. Both human rhabdomyosarcoma cells (RD cells; ATCC CCL-136) and primary human myoblasts were used in the experiments as noted. RD cells or primary human skeletal myoblasts were nucleofected with PMOs at 10, 3, 1 and 0.3 μM in SG or P3 nucleofector solution, respectively, and incubated overnight at 37° C. with 5% CO2. Total RNA was isolated from the cells and RT-PCR was performed using primers Myostatin EX1 Fwd (5′ […] SEQ ID NO: 48) and Myostatin EX3 Rev (5′ […] SEQ ID NO: 49). Amplified samples were analyzed using the LabChip Caliper to determine percent exon 2 skipping. EC50 values were determined using non-linear regression analysis in GraphPad Prism. EC50 values represent the concentration at which the test PMO induces 50% exon skipping.

The test system is the same in data set [2]. The experiment in a line: Exon 2 skipping by RT-PCR in nucleofected primary human myoblasts. It is filed as cell-based. Conditions: primary human myoblasts nucleofected with PMO at 10, 3, 1, 0.3 μM, overnight, concentration inducing 50% exon skipping. As to the method:
as §1

Where [3] appears, read: second series (FIG. 4), * = ambiguous fit on non-linear regression.

The EC50 is the concentration that produces a half-maximal response. Low values mean higher potency in that assay, high ones lower potency in that assay.

{TEG} = triethylene glycol spacer A value given as a limit tells only on which side of the number the result lay.

For “huMSTN-SA2(02 + 23): PMO, 5′ TEG, 3′ H; targeting sequence ATCCACTTGCATTAGAAAATCAGCT (all phosphorodiamidate morpholino (PMO), 5' {TEG})”, the concentration for a half-maximal effect (EC50) in data set [1] (third series (FIG. 5)) worked out at 1020 nM.
Turning to “huMSTN-SA2(−01 + 24): PMO, 5′ TEG, 3′ H; targeting sequence CATCCACTTGCATTAGAAAATCAGC (all phosphorodiamidate morpholino (PMO), 5' {TEG})”, in data set [1] (third series (FIG. 5)), a half-maximal effect (EC50) was put at 551 nM. For the same substance, in data set [1], the “exon skipping, in words” value was “most effective”.
For “huMSTN-SA2(−01 + 25): PMO, 5′ TEG, 3′ H; targeting sequence CCATCCACTTGCATTAGAAAATCAGC (all phosphorodiamidate morpholino (PMO), 5' {TEG})”, the concentration giving a half-maximal response (EC50) in data set [2] (first series (FIG. 3)) turned out to be 2160 nM.
Turning to “huMSTN-SA2(−03 + 22): PMO, 5′ TEG, 3′ H; targeting sequence TCCACTTGCATTAGAAAATCAGCTA (all phosphorodiamidate morpholino (PMO), 5' {TEG})”, the response in data set [1] (third series (FIG. 5)) was half-maximal at 11900 nM (EC50).
For “huMSTN-SA2(−04 + 21): PMO, 5′ TEG, 3′ H; targeting sequence CCACTTGCATTAGAAAATCAGCTAT (all phosphorodiamidate morpholino (PMO), 5' {TEG})”, in data set [1] (third series (FIG. 5)), the 50% effective concentration (EC50) is 365 nM. Also, the “exon skipping, in words” value in data set [1] is on record as “most effective”.
“huMSTN-SA2(−05 + 20): PMO, 5′ TEG, 3′ H; targeting sequence CACTTGCATTAGAAAATCAGCTATA (all phosphorodiamidate morpholino (PMO), 5' {TEG})”: the EC50 in data set [2] (first series (FIG. 3)) amounted to 3860 nM; in data set [1] (third series (FIG. 5)), 214 nM. Besides, the “exon skipping, in words” value in data set [1] was “most effective”.
Substance “huMSTN-SA2(−07 + 18): PMO, 5′ TEG, 3′ H; targeting sequence CTTGCATTAGAAAATCAGCTATAAA (all phosphorodiamidate morpholino (PMO), 5' {TEG})” returned a concentration giving a half-maximal response (EC50) in data set [1] (third series (FIG. 5)) of 881 nM.
On to “muhuD30-SD2(+30 + 1): sequence known in the prior art (US 2013/0085139), 5′ TEG, 3′ H; CAGCCCATCTTCTCCTGGTCCTGGGAAGGT (all phosphorodiamidate morpholino (PMO), 5' {TEG}) [reference compound]”, for which the 50% effective concentration (EC50) in data set [2] (first series (FIG. 3)) amounted to 2700 nM; in data set [1] (setting [3]) it was 522 nM.
In data set [2] (fourth series (FIG. 6)), “muhuMSTN-SD2(+01 − 23): PMO, 5′ TEG, 3′ H; targeting sequence TGTTATTTTCAGTTATCACTTACC (all phosphorodiamidate morpholino (PMO), 5' {TEG})” returned an EC50 of 648 nM.
Substance “muhuMSTN-SD2(+01 − 24): PMO, 5′ TEG, 3′ H; targeting sequence ATGTTATTTTCAGTTATCACTTACC (all phosphorodiamidate morpholino (PMO), 5' {TEG})” gave an EC50 in data set [2] (fourth series (FIG. 6)) of 642 nM.
In data set [2] (fourth series (FIG. 6)), “muhuMSTN-SD2(+02 − 18): PMO, 5′ TEG, 3′ H; targeting sequence TTTTCAGTTATCACTTACCA (all phosphorodiamidate morpholino (PMO), 5' {TEG})” registered an EC50 of 6210 nM.
Still for that read-out and setting: next, “muhuMSTN-SD2(+02 − 19): PMO, 5′ TEG, 3′ H; targeting sequence ATTTTCAGTTATCACTTACCA (all phosphorodiamidate morpholino (PMO), 5' {TEG})”: 3580 nM.
In data set [2] (fourth series (FIG. 6)), “muhuMSTN-SD2(+02 − 20): PMO, 5′ TEG, 3′ H; targeting sequence TATTTTCAGTTATCACTTACCA (all phosphorodiamidate morpholino (PMO), 5' {TEG})” returned an EC50 of 4060 nM.
Substance “muhuMSTN-SD2(+02 − 21): PMO, 5′ TEG, 3′ H; targeting sequence TTATTTTCAGTTATCACTTACCA (all phosphorodiamidate morpholino (PMO), 5' {TEG})” had a concentration for a half-maximal effect (EC50) in data set [2] (fourth series (FIG. 6)) of 3990 nM.
On the same count and under the same terms, with “muhuMSTN-SD2(+02 − 22): PMO, 5′ TEG, 3′ H; targeting sequence GTTATTTTCAGTTATCACTTACCA (all phosphorodiamidate morpholino (PMO), 5' {TEG})” the figure was 687 nM; with “muhuMSTN-SD2(+02 − 23): PMO, 5′ TEG, 3′ H; targeting sequence TGTTATTTTCAGTTATCACTTACCA (all phosphorodiamidate morpholino (PMO), 5' {TEG})”, 277 nM; with “muhuMSTN-SD2(+04 − 16): PMO, 5′ TEG, 3′ H; targeting sequence TTCAGTTATCACTTACCAGC (all phosphorodiamidate morpholino (PMO), 5' {TEG})”, 3910 nM.
As for “muhuMSTN-SD2(+04 − 21): PMO, 5′ TEG, 3′ H; targeting sequence TTATTTTCAGTTATCACTTACCAGC (all phosphorodiamidate morpholino (PMO), 5' {TEG})”, the EC50 was 1050 nM in data set [2] (first series (FIG. 3)) and 0.92 nM in data set [1] (setting [3]).
In data set [2] (fourth series (FIG. 6)), “muhuMSTN-SD2(+05 − 16): PMO, 5′ TEG, 3′ H; targeting sequence TTCAGTTATCACTTACCAGCC (all phosphorodiamidate morpholino (PMO), 5' {TEG})” registered a concentration giving a half-maximal response (EC50) of 1330 nM.
With “muhuMSTN-SD2(+06 − 16): PMO, 5′ TEG, 3′ H; targeting sequence TTCAGTTATCACTTACCAGCCC (all phosphorodiamidate morpholino (PMO), 5' {TEG})”, the EC50 in data set [2] (fourth series (FIG. 6)) was 829 nM.
The same measure, in the same setting: with “muhuMSTN-SD2(+07 − 16): PMO, 5′ TEG, 3′ H; targeting sequence TTCAGTTATCACTTACCAGCCCA (all phosphorodiamidate morpholino (PMO), 5' {TEG})” the figure was 612 nM.
Take “muhuMSTN-SD2(+07 − 18): PMO, 5′ TEG, 3′ H; targeting sequence TTTTCAGTTATCACTTACCAGCCCA (all phosphorodiamidate morpholino (PMO), 5' {TEG})”: the figures for the EC50 in data set [2] (first series (FIG. 3)) and in data set [1] (setting [3]) were 662 nM and 0.06 nM, respectively.
On to “muhuMSTN-SD2(+08 − 16): PMO, 5′ TEG, 3′ H; targeting sequence TTCAGTTATCACTTACCAGCCCAT (all phosphorodiamidate morpholino (PMO), 5' {TEG})”, for which, in data set [2] (fourth series (FIG. 6)), the EC50 amounted to 622 nM.
“muhuMSTN-SD2(+09 − 11): PMO, 5′ TEG, 3′ H; targeting sequence TTATCACTTACCAGCCCATC (all phosphorodiamidate morpholino (PMO), 5' {TEG})”: the concentration giving a half-maximal response (EC50) in data set [2] (fourth series (FIG. 6)) is above 10000 nM.
As for “muhuMSTN-SD2(+09 − 12): PMO, 5′ TEG, 3′ H; targeting sequence GTTATCACTTACCAGCCCATC (all phosphorodiamidate morpholino (PMO), 5' {TEG})”, in data set [2] (fourth series (FIG. 6)), the concentration for a half-maximal effect (EC50) worked out at 4350 nM.
Take “muhuMSTN-SD2(+09 − 13): PMO, 5′ TEG, 3′ H; targeting sequence AGTTATCACTTACCAGCCCATC (all phosphorodiamidate morpholino (PMO), 5' {TEG})”: the 50% effective concentration (EC50) in data set [2] (fourth series (FIG. 6)) came out at 2400 nM.
Still for that read-out and setting: next, “muhuMSTN-SD2(+09 − 14): PMO, 5′ TEG, 3′ H; targeting sequence CAGTTATCACTTACCAGCCCATC (all phosphorodiamidate morpholino (PMO), 5' {TEG})”: 1250 nM; “muhuMSTN-SD2(+09 − 15): PMO, 5′ TEG, 3′ H; targeting sequence TCAGTTATCACTTACCAGCCCATC (all phosphorodiamidate morpholino (PMO), 5' {TEG})”: 771 nM; “muhuMSTN-SD2(+09 − 16): PMO, 5′ TEG, 3′ H; targeting sequence TTCAGTTATCACTTACCAGCCCATC (all phosphorodiamidate morpholino (PMO), 5' {TEG})”: 549 nM.
As for “muhuMSTN-SD2(+10 − 15): PMO, 5′ TEG, 3′ H; targeting sequence TCAGTTATCACTTACCAGCCCATCT (all phosphorodiamidate morpholino (PMO), 5' {TEG})”, the EC50 stood at 1070 nM in data set [2] (first series (FIG. 3)), 0.02 nM in data set [1] (setting [3]) and 115 nM in data set [1] (third series (FIG. 5)). For the same substance, the “exon skipping, in words” value in data set [1] was “most effective”.
The substance “muhuMSTN-SD2(+13 − 12): PMO, 5′ TEG, 3′ H; targeting sequence GTTATCACTTACCAGCCCATCTTCT (all phosphorodiamidate morpholino (PMO), 5' {TEG})” registered an EC50 in data set [1] (setting [3]) of 970 nM.
Still for that read-out and setting: next, “muhuMSTN-SD2(+19 − 06): PMO, 5′ TEG, 3′ H; targeting sequence ACTTACCAGCCCATCTTCTCCTGGT (splice-switching; all phosphorodiamidate morpholino (PMO), 5' {TEG})”: 1330 nM.
Turning to “muhuMSTN-SD2(+22 − 03): PMO, 5′ TEG, 3′ H; targeting sequence TACCAGCCCATCTTCTCCTGGTCCT (splice-switching; all phosphorodiamidate morpholino (PMO), 5' {TEG})”, the EC50 in data set [1] (setting [3]) came to 1410 nM.
As for “muhuMSTN-SD2(+24 − 01): PMO, 5′ TEG, 3′ H; targeting sequence CCAGCCCATCTTCTCCTGGTCCTGG (splice-switching; all phosphorodiamidate morpholino (PMO), 5' {TEG})”, in data set [1] (setting [3]), the concentration giving a half-maximal response (EC50) stood at 1410 nM.
